Experimental data: US20100113570A1, “PREVENTION AND TREATMENT OF POST-OPERATIVE COGNITIVE DYSFUNCTION” (The General Hospital Corporation, priority 2008, published 2010)

How the values were obtained:
H4-APP cells [1] = assay: Caspase-3 activation by Western blot (ratio of caspase-3 fragment to FL-caspase-3) in H4-APP cells; type: cell-based, human
Protocol: (§1) Cell lines. We used naive H4 human neuroglioma cells stably transfected to express full-length APP (FL-APP; H4-APP cells) in the studies. The cells were cultured in DMEM (high glucose) containing 9% heat inactivated fetal calf serum, 100 U/ml penicillin, 100 μg/ml streptomycin, 2 mM L-glutamine, and 200 μg/ml G418.
(§2) Cell treatment. Twenty-one percent O2, 5% CO2, and 2% isoflurane were delivered from an anesthesia machine to a sealed plastic box in a 37° Celsius incubator containing six-well plates seeded with one million cells in 1.5 ml of cell culture media as described in our previous studies (Xie et al., 2006a,b, 2007). Date infrared gas analyzer (Puritan-Bennett, Tewksbury, Mass.) was used to continuously monitor the delivered CO2, O2, and isoflurane concentrations. We treated the cells with 2% isoflurane for 6 h, during which time the cells were incubated in serum-free media. In the interaction studies, the cells were treated with memantine (4 μM) 1 h before the treatment of 2% isoflurane. Low-calcium condition was created by using a calcium-free cell culture media (Invitrogen, Carlsbad, Calif.) and by adding EDTA (10 mM; Sigma-Aldrich, St. Louis, Mo.), a chelating compound (Rekasi et al., 2005), or BAPTA (10 μM; Sigma-Aldrich), an intracellular calcium chelator, to the media. […] These siRNAs and control siRNAs (3′[…]) were obtained from Dharmacon (Lafayette, Colo.). siRNAs were transfected into cells by using electroporation (Amaxa Biosystems, Gaithersburg, Md.) as described by Xie et al. (2005b). Briefly, we mixed 1 million cells, 100 μl of AMAXA electroporation transfection solution, and 10 μl of 20 μM siRNA together and then used the C-9 program in an AMAXA electroporation device for cell transfection. The transfected cells were then placed in one of the six-well plates containing 1.5 ml of cell culture media. The pretreated cells were then exposed to the isoflurane treatment.
Cell lysis and protein amount quantification. Cell pellets were detergent-extracted on ice using immunoprecipitation buffer (10 mM Tris-HCl, pH 7.4, 150 mM NaCl, 2 mM EDTA, 0.5% Nonidet P-40) plus protease inhibitors (1 μg/ml aprotinin, 1 μg/ml leupeptin, 1 μg/ml pepstatin A). The lysates were collected, centrifuged at 12,000 rpm for 10 min, and quantified for total proteins by a BCA protein assay kit (Pierce Technology Corporation, Iselin, N.J.).
Western blot analysis. The harvested cells and brain tissues were subjected to Western blots as described by Xie et al. (2005a). A caspase-3 antibody (1:1000 dilution; Cell Signaling Technology, Beverly, Mass.) was used to recognize caspase-3 fragment (17-20 kDa) resulting from cleavage at asparate position 175 and FL-caspase-3 (35-40 kDa). Caspase-3 cleavage (activation) is based on the ratio of caspase-3 fragment to FL caspase-3. Antibody anti-b-actin was used to visualize b-actin (42 kDa). Antibodies for IP3 receptor (1:1000; Millipore Bioscience Research Reagents, Temecula, Calif.), NR1 (1:1000; PhosphoSolutions, Aurora, Colo.), and SERCA1 (1:1000; Abcam, Cambridge, Mass.) were used to recognize IP3 receptor (250 kDa), NR1 (120 kDa), and SERCA1 (110 kDa). The quantitation of Western blots was performed as described by Xie et al. (2005a). Briefly, the intensity of signals was analyzed by using a Bio-Rad (Hercules, Calif.) image program (Quantity One) and an NIH Image version 1.37v. We quantified the Western blots using two steps.

[2] = Blood pressure and blood gas of anesthetized mice; type: in vivo; conditions: 1.4% isoflurane for 2 h; data not shown
Protocol: (§3) Mice treatment. The animal protocol was approved by the Massachusetts General Hospital Standing Committee on Animals Sixteen female C57BL/6 mice (5-6 months of age) (The Jackson Laboratory, Bar Harbor, Me.) were randomly assigned to an anesthesia or control group. […] This isoflurane treatment allows the mice to have sufficient exposure to isoflurane while avoiding excessive accumulation of CO2. The control mice (n=8) received 100% oxygen at an identical flow rate for 6 h and 20 min in an identical chamber. The mice breathed spontaneously, and anesthetic and oxygen concentrations were measured continuously (Datex, Puritan-Bennett; Ohmeda PPD, Madison, Wis.). Rectal temperature was measured intermittently, and the temperature of the anesthetizing chamber was controlled to maintain rectal temperature of the animals at 37±0.5° C. Mean arterial blood pressure was measured noninvasive using a tail cuff (CODA2 system; Kent Scientific Corporation, Torrington, Conn.) in the anesthetized mice. […] Mice were killed by decapitation at the end of the experiments, the brain was removed rapidly, and the prefrontal cortex was dissected out and frozen in liquid nitrogen for subsequent processing for the determination of caspase-3activation.

caspase-3 = assay: Caspase-3 activation in brain tissue of naive mice (Western blot); type: in vivo
Protocol: as §3, with “caspase-3activation. […] Brain tissue lysis and protein amount quantification. […] The lysates were collected, centrifuged at 12,000 rpm for 10 min, and quantified for total proteins by a BCA protein assay kit (Pierce Technology Corporation). Western blot analysis. The harvested cells and brain tissues were subjected to Western blots as described by Xie et al. (2005a). […] Caspase-3 cleavage (activation) is based on the ratio of caspase-3 fragment to FL caspase-3. Antibody anti-b-actin was used to visualize b-actin (42 kDa). […] The quantitation of Western blots was performed as described by Xie et al. (2005a). Briefly, the intensity of signals was analyzed by using a Bio-Rad (Hercules, Calif.) image program (Quantity One) and an NIH Image version 1.37v. We quantified the Western blots using two steps. […] Data were expressed as mean±SD. […]” for “caspase-3activation.”

MTT cell viability assay = type: cell-based, human; conditions: human, MTT
Protocol: as §1, §2

H4-APP cells [3] = assay: Cell apoptosis assay (cell death detection ELISA); type: cell-based, human
Protocol: as §1, §2

H4-APP cells [4] = assay: Cytosolic calcium measurement (Fura-2 ratio); type: cell-based, human
Protocol: Cytosolic calcium measurement. Cytosolic calcium levels were determined as described by Wei et al. (2008). Specifically, H4-APP cells were loaded with Fura-2 (Invitrogen), perfused with Tyrode buffer, and [Ca2+]i transients were recorded as changes in Fura-2 ratio (340/380 nm) using a spectrofluoroscope system (Ionoptix, Milton, Mass.).

H4-APP cells [5] = assay: MTT cell viability assay; type: cell-based, human
Protocol: as §1, §2

[6] = isoflurane plus control siRNA, control = 100%
[7] = memantine 4 μM alone vs control conditions

## O=C(O)CN(CC(=O)O)c1ccccc1OCCOc1ccccc1N(CC(=O)O)CC(=O)O [BAPTA, 1,2-bis (o-aminophenoxy)ethane-N,N,N′,N′-tetraacetic acid]
H4-APP cells [1]; BAPTA 10 μM plus 2% isoflurane for 6 h, control = 100%
  caspase-3 activation, BAPTA plus isoflurane: 154%
H4-APP cells [1]; BAPTA plus control condition vs DMSO plus control condition
  caspase-3 activation, BAPTA alone: does not induce caspase-3 activation

## O=C(O)CN(CCN(CC(=O)O)CC(=O)O)CC(=O)O [EDTA, ethylenediaminetetraacetic acid]
H4-APP cells [1]; isoflurane plus low calcium and EDTA (10 mM), H4-APP cells
  reduction in caspase-3 activation compared with isoflurane plus normal calcium: 68%

## FC(F)OC(Cl)C(F)(F)F (centres unmarked) [isoflurane]
[2]
  effect on blood pressure and venous blood gas: did not significantly affect blood pressure and venous blood gas
caspase-3; three sessions of 1.4% isoflurane for 2 h, prefrontal cortex, control = 100%
  caspase-3 activation in mouse brain compared with control condition: 177%
H4-APP cells [1]; 2% isoflurane for 6 h alone, H4-APP cells, control = 100%
  caspase-3 activation compared with control conditions: 184%
H4-APP cells [1]; 2% isoflurane for 6 h plus DMSO, control = 100%
  caspase-3 activation, isoflurane plus DMSO (BAPTA experiment): 185%
H4-APP cells [1]; 2% isoflurane for 6 h plus control siRNA, control = 100%
  caspase-3 activation, isoflurane plus control siRNA (NR1 experiment): 168%
H4-APP cells [1]; [6]
  caspase-3 activation, isoflurane plus control siRNA (IP3 receptor experiment): 292%
  caspase-3 activation, isoflurane plus control siRNA (SERCA1 experiment): 194%
MTT cell viability assay; 2% isoflurane for 6 h, percent of control, read-out: cell viability, isoflurane alone
  viability at 6 h, 2 %: 74%
MTT cell viability assay; 2% isoflurane for 6 h vs control conditions, read-out: reduction in cell viability
  cytotoxicity at 6 h, 2 %: 26%
H4-APP cells [3]; 2% isoflurane for 6 h alone, control = 100%
  cell apoptosis compared with control conditions: 137%
H4-APP cells [4]; isoflurane 1 mM or 3.5%
  cytosolic calcium levels, isoflurane: can elevate cytosolic calcium levels

## CC12CC3CC(C)(C1)CC(N)(C3)C2 [memantine]
caspase-3; memantine 20 mg/kg i.p. 1 h before three sessions of 1.4% isoflurane for 2 h, control = 100%
  caspase-3 activation in mouse brain, memantine plus isoflurane: 97%
caspase-3; memantine 20 mg/kg intraperitoneal alone vs control condition
  caspase-3 activation in mouse brain, memantine alone: did not induce caspase-3 activation
H4-APP cells [1]; memantine 4 μM 1 h before 2% isoflurane for 6 h, H4-APP cells, control = 100%
  caspase-3 activation, memantine plus isoflurane: 101%
H4-APP cells [1]; memantine 4 μM alone vs control conditions, H4-APP cells
  caspase-3 activation, memantine alone: did not induce caspase-3 activation
H4-APP cells [5]; [7]
  cell viability, memantine alone: had no effects on either cell viability or apoptosis
H4-APP cells [5]; memantine 4 μM plus 2% isoflurane for 6 h, percent of control, MTT
  cell viability, memantine plus isoflurane: 95%
H4-APP cells [3]; [7]
  cell apoptosis, memantine alone: had no effects on either cell viability or apoptosis
H4-APP cells [3]; memantine 4 μM plus 2% isoflurane for 6 h, control = 100%
  cell apoptosis, memantine plus isoflurane: 99%
H4-APP cells [4]; pretreated with memantine 4 μM, then isoflurane 1 mM or 3.5%
  isoflurane-induced elevation in cytosolic calcium levels, memantine pretreatment: isoflurane failed to increase cytosolic calcium levels
